From patent publication EP1707622A1, “USE OF COMPOUNDS THAT REGULATE HDAC6 TUBULIN DEACETYLASE ACTIVITY IN THE PREPARATION OF PHARMACEUTICAL COMPOSITIONS, METHOD OF IDENTIFYING THE AFOR[…], SAID PHARMACEUTICAL COMPOUNDS AND APPLICATIONS THEREOF” (UNIVERSIDAD AUTONOMA DE MADRID CIUDAD UNIVERSITARIA …, priority 2004, dated 2005)
Where a SMILES comes first, the peptide text is derived from it. [ ]: non-standard residue; d: D form. Aoe = N[C@@H](CCCCCC(=O)[C@@H]1CO1)C(=O)O

Key:
[1] = tested on: J77 cells; assay: CD3 clustering in the central region of the immunological synapse; assay type: cell-based, human; settings: for reversion of the prevention of CD3 clustering caused by HDAC6-GFP: J77 cells transfected with HDAC6-GFP, SEE-marked Raji cells, 30 minutes at 37°C, Figures 5A and B
[2] = tested on: J77 cells; assay: Microtubule organizing centre (MTOC) translocation assay; assay type: cell-based, human; settings: for restoration of MTOC translocation in cells transfected with HDAC6-GFP: J77 cells transfected with HDAC6-GFP, SEE-pulsed Raji cells, 3 µM TSA, Figures 7A and B; for MTOC translocation: Figure 7B
Procedure: A 1:1 ratio of Raji cells and T cells transfected with HDAC6 were placed in contact for 15 minutes at 37°C in RPMI medium. The cell conjugates were then gently resuspended and plated on PLL-coated cover slips for 15 more minutes as previously described (Sancho et al., 2002). The cell conjugates were then fixed, permeabilized and stained for α-tubulin for the purpose of observation by immunofluorescence microscopy. The MTOC was considered to be redirected when it was in close proximity with the T cell plasma membrane, between the cell nucleus and the contact area with the antigen-presenting cell. At least 200 cell conjugates were counted in each experiment.

[3] = tested on: J77 cells; assay: LFA-1 organization in the immunological synapse peripheral ring; assay type: cell-based, human; settings: J77 cells with SEE-marked Raji cells, 30 minutes at 37°C; Figure 6 and data not shown
[4] = target: T1, HDAC6 (Homo sapiens, UniProt Q9UBN7); settings: CD4+ T lymphocytes and J77 cells pre-treated for 30 minutes (3µM TSA or 5 mM sodium butyrate), SEE-pulsed Raji cells; Figure 3B
T1 sequence (Q9UBN7 1-1215): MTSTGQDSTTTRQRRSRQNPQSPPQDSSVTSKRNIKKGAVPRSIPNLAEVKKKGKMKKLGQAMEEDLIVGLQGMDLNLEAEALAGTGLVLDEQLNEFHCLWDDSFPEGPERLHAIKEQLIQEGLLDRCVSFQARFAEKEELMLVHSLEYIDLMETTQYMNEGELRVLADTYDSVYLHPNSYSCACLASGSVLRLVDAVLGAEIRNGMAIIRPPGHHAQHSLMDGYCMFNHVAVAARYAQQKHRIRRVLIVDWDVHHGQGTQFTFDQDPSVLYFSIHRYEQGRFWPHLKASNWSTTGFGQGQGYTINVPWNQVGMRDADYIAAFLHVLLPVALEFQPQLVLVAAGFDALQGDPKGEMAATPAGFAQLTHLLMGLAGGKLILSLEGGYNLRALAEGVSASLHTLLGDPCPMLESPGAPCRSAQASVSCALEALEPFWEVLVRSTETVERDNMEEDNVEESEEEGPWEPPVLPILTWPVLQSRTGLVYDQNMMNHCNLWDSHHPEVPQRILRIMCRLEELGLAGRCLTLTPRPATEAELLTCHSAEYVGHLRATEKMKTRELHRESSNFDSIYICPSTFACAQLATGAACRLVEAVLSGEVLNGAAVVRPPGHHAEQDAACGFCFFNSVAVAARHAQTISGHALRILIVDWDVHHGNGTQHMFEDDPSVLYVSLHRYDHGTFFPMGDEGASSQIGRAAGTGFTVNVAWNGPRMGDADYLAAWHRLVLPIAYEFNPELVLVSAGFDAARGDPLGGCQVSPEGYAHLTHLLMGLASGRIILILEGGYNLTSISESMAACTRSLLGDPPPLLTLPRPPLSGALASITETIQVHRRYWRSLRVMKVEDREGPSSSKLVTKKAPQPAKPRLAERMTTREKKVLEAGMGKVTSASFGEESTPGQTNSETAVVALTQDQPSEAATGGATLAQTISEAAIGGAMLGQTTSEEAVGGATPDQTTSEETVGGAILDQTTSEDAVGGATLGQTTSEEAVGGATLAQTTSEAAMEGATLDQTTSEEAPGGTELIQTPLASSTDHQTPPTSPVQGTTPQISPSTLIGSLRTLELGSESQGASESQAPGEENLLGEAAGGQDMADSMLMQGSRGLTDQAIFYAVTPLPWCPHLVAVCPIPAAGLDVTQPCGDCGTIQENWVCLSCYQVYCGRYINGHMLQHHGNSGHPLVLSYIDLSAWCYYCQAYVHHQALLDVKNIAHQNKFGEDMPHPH

[5] = treatment effect in the quantitative analysis

Row | SMILES | reversion of the prevention of CD3 clustering caused by HDAC6-GFP [1] | restoration of MTOC translocation in cells transfected with HDAC6-GFP [2] | MTOC translocation [2, 5] | kinetics of CD3 clustering in the central region of the immunological synapse ([1]; J77 cells pre-treated, Raji cells marked with 1µg/ml SEE, different times, Figure 5C) | CD3 clustering ([1]; pretreated cells in contact with SEE-marked Raji cells, Figure 5B) | LFA-1 organization in the peripheral ring of the immunological synapse [3] | kinetics of MTOC translocation ([2]; cell conjugates between J77 and Raji cells, different times, Figure 7C) | MTOC translocation ([2]; peripheral blood CD4+ lymphocytes with SEE-pulsed Raji cells) | acetylated tubulin staining in the contact site with antigen-presenting cells [4]
1 | O=C1N[C@@H](Cc2ccccc2)C(=O)N2CCC[C@@H]2C(=O)N[C@@H](CCCCCC(=O)[C@@H]2CO2)C(=O)N[C@H]1Cc1ccccc1 [trapoxin B] (cyclo(FF[dP][Aoe])) | not | not | did not affect | – | – | – | – | – | –
2 | CC(/C=C/C(=O)NO)=C\[C@@H](C)C(=O)c1ccc(N(C)C)cc1 [TSA, Trichostatin A] | reverted | restored normal translocation | – | accelerated | slight increase | well organized | accelerates | increases | –
3 | CCCC(=O)[O-].[Na+] [sodium butyrate] | not | not | did not affect | – | – | – | – | – | weak
